# Data as given in US8507464B2, “Phosphoramidate alkylator prodrugs” (Threshold Pharmaceuticals, Inc., priority 2005, dated 2013).
# Read-outs that look alike come from different tables or passages of the source.
# Assays:
# [1] = system: H460 lung carcinoma spheroids; assay: Spheroid model, clonogenic survival; conditions: read-out: IC90 H460 Spheroid 10% O2
# NCI-H460 cells [2] = assay: Antiproliferation assay (Alamar Blue), anoxia vs air
# NCI-H460 cells [3] = assay: Antiproliferation assay - oxygen dependence; format: cell-based, human
# Text: . […] The calculated IC50 values (μM) are tabulated in Table Y1 (H460 cells) or Table Y2 (HT29 cells) below.
# [4] = system: HT-29 human colon carcinoma xenograft; assay: HT-29 human colon carcinoma xenograft mouse model (Example 47); format: in vivo; conditions: Group 8: 5FU 10 mg/kg; vs vehicle
# Description: Female CB17/SCID mice (purchased from Charles River, Cambridge, Mass.), 7-8 weeks of age, were allowed to acclimatize for at least three days, and handled under pathogen-free conditions. Human colon carcinoma cell line HT-29 was obtained from the American Type Culture Collection. The cell lines were cultured in RPMI 1640 media supplemented with 10% fetal bovine serum. Cells were maintained in a 37° C. incubator with 5% CO2. The HT-29 cells were harvested from culture and inoculated at 3×10^6 cells/animal in the peritoneal subcutaneous space. When the tumors grew to an average volume of 100 mm^3 (day 8), each group of 10 mice was administered, for three weeks, vehicle alone (saline and PEG (10 mL/kg each), Group 1), Compound 36 alone (dissolved in 30% cyclodextrin in PBS) at a daily dose of 20, 60, or 200 mg/kg (Groups 2, 3 and 4, respectively), and Compound 36 at a daily dose of 20, 60, and 200 mg/kg given 2-3 hours after a dose of 10 mg/kg of 5FU (in saline) (Group 5, 6 and 7, respectively) and compared to a group receiving only 5FU at 10 mg/kg (Group 8) as tabulated below.
# The body weight of each mouse was recorded twice per week. Growth of each xenograft was monitored by externally measuring tumors in two dimensions using a digital caliper twice per week. Tumor volume (V) was determined by the following equation: V=(L×W^2)/2, where L is the length and W is the width of a xenograft. Tumor volumes were measured twice weekly.
# MES-SA cells = assay: Antiproliferation assay (Alamar Blue), anoxia vs air; conditions: Homo sapiens, 2 h
# H460 cell line = assay: Anti-proliferation assay, hypoxia vs normoxia (Table 1A); conditions: for IC50: Homo sapiens; for HCR P: ratio of IC50 in normoxia and hypoxia
# HT29 cells = assay: Antiproliferation assay (Alamar Blue), anoxia vs air; conditions: Homo sapiens, HT-29, 2 h
# [5] = format: physicochemical; conditions: glassy carbon, Ag/AgCl reference
# HT29 = assay: Anti-proliferation assay, hypoxia vs normoxia (Table 1B); conditions: for IC50: Homo sapiens
# HCT116 = assay: as above; conditions: for IC50: Homo sapiens
# [6] = system: mouse (MLM) liver microsomal proteins; format: in vitro ADME; conditions: Table 2B
# [7] = Plasma stability (Table 2B); conditions: at 20 min
# human H460 cells = assay: Clonogenic survival assay, hypoxia vs normoxia (Table 1A); conditions: for IC90: Homo sapiens
# NCI-H460 cells [8] = assay: Clonogenic assay - oxygen dependence; conditions: Homo sapiens
# [9] = system: H460 cells exposed as monolayers; assay: Clonogenic survival of monolayer cells (Example 35); conditions: Homo sapiens, NCI-H460, 2 h, read-out: IC90 H460 Monolayer N2
# [10] = Homo sapiens, NCI-H460, 2 h, read-out: IC50 H460 Air, air, 2 h exposure
# [11] = Homo sapiens, NCI-H460, 2 h, read-out: IC50 H460 Anoxia, anoxia, 2 h exposure
# [12] = NCI-H460, read-out: Hypoxia P (proliferation IC50)
# [13] = NCI-H460, read-out: Normoxia P (proliferation IC50)
# [14] = Homo sapiens, NCI-H460, read-out: IC50 in H460 cells, Air
# [15] = Homo sapiens, NCI-H460, read-out: IC50 in H460 cells, N2
# [16] = Homo sapiens, NCI-H460, read-out: IC50 in H460 cells, 0.6% O2
smiles,measurement,setting,value
N#Cc1cc(COP(=O)(NCCBr)NCCBr)sc1[N+](=O)[O-] [Compound 97],IC90,"[1]; 2 h exposure, 10% O2",13 µM
same,IC50,"NCI-H460 cells [2]; read-out: IC50 H460 Air, air, 2 h exposure",0.1 µM
same,IC50,"NCI-H460 cells [2]; read-out: IC50 H460 Anoxia, anoxia, 2 h exposure",0.01 µM
same,IC50,"NCI-H460 cells [3]; Air; read-out: IC50 in H460 cells, Air",0.02 µM
same,IC50,"NCI-H460 cells [3]; N2; read-out: IC50 in H460 cells, N2",0.006 µM
same,IC50,"NCI-H460 cells [3]; read-out: IC50 in H460 cells, 0.6% O2",0.01 µM
"O=c1[nH]cc(F)c(=O)[nH]1 [Compound 5FU, 5-fluoro-2,4(1H,3H)-pyrimidinedione, reference compound]",% Inhibition vs Group 1,[4],38.7%
O=[N+]([O-])c1ccc(COP(=O)(NCCBr)NCCBr)s1 [Compound 34],IC50,MES-SA cells; read-out: IC50 MES-SA Air,10 µM
same,IC50,MES-SA cells; read-out: IC50 MES-SA Anoxia,0.13 µM
same,IC50,NCI-H460 cells [2]; [10],1.8 µM
same,IC50,NCI-H460 cells [2]; [11],0.01 µM
same,IC50,H460 cell line; [12],< 0.01 µM
same,IC50,H460 cell line; [13],1.8 µM
same,HCR P,H460 cell line,>180
same,IC50,HT29 cells; read-out: IC50 HT29 Air,57 µM
same,IC50,HT29 cells; read-out: IC50 HT29 Anoxia,0.8 µM
same,"Reduction Potentials, 100 mV/sec",[5]; scan rate 100 mV/sec,−584 mV
same,"Reduction Potentials, 10,000 mV/sec","[5]; scan rate 10,000 mV/sec",−663 mV
same,HT29 HCR P,HT29,70
same,IC50,"HT29; HT-29, read-out: HT29 P H (proliferation IC50, hypoxia)",0.8 µM
same,IC50,"HT29; HT-29, read-out: HT29 P N (proliferation IC50, normoxic)",57 µM
same,HCT116 HCR,HCT116,77
same,IC50,"HCT116; HCT-116, read-out: HCT116 P H (proliferation IC50, hypoxia)",0.13 µM
same,IC50,"HCT116; HCT-116, read-out: HCT116 P N (proliferation IC50, normoxic)",10 µM
same,IC50,"NCI-H460 cells [3]; Homo sapiens, NCI-H460, read-out: IC50 in H460 cells, 0.3% O2",1 µM
same,IC50,NCI-H460 cells [3]; [14],5 µM
same,IC50,NCI-H460 cells [3]; [15],0.01 µM
same,Metabolic stability (MLM) (% at 30 min),[6],28%
same,Plasma stability (at 20 min),[7],85%
Cn1c(COP2(=O)N(CCCl)CCCN2CCCl)cnc1[N+](=O)[O-] [Compound 16],IC90,"human H460 cells; NCI-H460, read-out: Hypoxia C (clonogenic IC90)",0.2 µM
same,IC90,"human H460 cells; NCI-H460, read-out: Normoxia C (clonogenic IC90)",35 µM
same,HCR C,human H460 cells; ratio of IC90 in normoxia and hypoxia,175
same,IC50,NCI-H460 cells [2]; [10],> 100 µM
same,IC50,NCI-H460 cells [2]; [11],1.6 µM
same,IC50,H460 cell line; [12],1.6 µM
same,IC50,H460 cell line; [13],100 µM
same,HCR P,H460 cell line,60
same,IC50,"NCI-H460 cells [3]; Homo sapiens, NCI-H460, read-out: IC50 in H460 cells, 0.1% O2",10 µM
same,IC50,NCI-H460 cells [3]; [16],10 µM
same,IC50,"NCI-H460 cells [3]; Homo sapiens, NCI-H460, read-out: IC50 in H460 cells, 10% O2",100 µM
same,IC50,"NCI-H460 cells [3]; Homo sapiens, NCI-H460; read-out: IC50 in H460 cells, Air",> 100 µM
same,IC50,"NCI-H460 cells [3]; Homo sapiens, NCI-H460; read-out: IC50 in H460 cells, N2",0.3 µM
same,Metabolic stability (MLM) (% at 30 min),[6],40%
COC(=O)c1cc(C(C)OP(=O)(NCCBr)NCCBr)ccc1OCc1cnc([N+](=O)[O-])n1C (centres unmarked) [Compound 70],IC90,"[1]; Homo sapiens, NCI-H460, 2 h",25.5 µM
same,IC50,NCI-H460 cells [2]; [10],65 µM
same,IC50,NCI-H460 cells [2]; [11],2 µM
same,IC90,"NCI-H460 cells [8]; NCI-H460, read-out: IC90 H460 0.6% O2",8 µM
same,IC90,"NCI-H460 cells [8]; NCI-H460, read-out: IC90 H460 Air",20 µM
same,IC90,"NCI-H460 cells [8]; NCI-H460, read-out: IC90 H460 N2",2 µM
same,IC90,[9],1.25 µM
same,IC50,NCI-H460 cells [3]; [16],30 µM
same,IC50,NCI-H460 cells [3]; [14],65 µM
same,IC50,NCI-H460 cells [3]; [15],2 µM
